{
  "source": "patent US20080260896A1",
  "about": "(priority 2007, published 2008)",
  "key": {"[1]": {"experiment": "Crude glycerin as an energy source in swine nursery diets", "type": "in vivo", "conditions": "nursery pigs", "experimental": "In yet another embodiment, crude glycerin was evaluated as an energy source in swine nursery diets. A total of 165 pigs (Monsanto Choice Genetics, EB x GP37; initial weight: 7.14 kg) were used to determine the effect of […] on performance of nursery pigs. Pigs were blocked by initial weight to one of five dietary treatments with seven pens per treatment and four or five pigs per pen. […] The basal diets were close to a typical corn-SBM diet with no animal fat added. […] Dietary protein, lysine (amino acid ratios), major minerals, and vitamins were equal across treatments within each phase. […] Dietary lysine levels were high enough to […] to observe energy effect. Feeding programs of Momentum grind-mix option (15-25, 25-35 and 35-50 lbs. BW) was the base program. The trial had four phases with 7, 7, 7, and 9 days, respectively. Before the pigs started the trial, the pigs were fed a common diet until the pigs weighed about 15.5 pounds. Medication choice for diets in this embodiment was Carbadox. The assumed ME value for crude glycerin was based on preliminary research data from Europe. […] Feed efficiency data was regressed against daily ME intake to estimate ME content for crude glycerin. […] The crude glycerin's energy value should be similar to or lower than corn."}, "[2]": {"conditions": "male, crossbred, cattle, in vivo", "from_the_text": "A subset of ten cattle (5 from each treatment) were used for baseline and withdrawal sampling of rumen fluid and blood plasma for residual methanol quantification. […] Withdrawal samples were collected from the same subset of animals."}, "[3]": {"experiment": "Gross energy of crude glycerin sample", "type": "physicochemical", "conditions": "test crude glycerin sample with 14.8% moisture"}, "[4]": {"conditions": "lambs", "excerpt": "Lambs received a common receiving ration for one week prior to allotment. Lambs were blocked by weight (4 blocks) and fed in individual crates for […]. […] Initial and final weights were collected on consecutive days and an interim weight was taken on day 14. Periods were: 1) days 1 to 14, 2) days 15 to 29, and 3) cumulative (days 1 to 29)."}, "[5]": {"experiment": "Lactating Holstein cows fed heat stress product with and without glycerin", "type": "in vivo", "conditions": "heat stress product + 454 g/d glycerin", "excerpt": "Forty-eight lactating Holstein cows (twelve per treatment) were used in a randomized complete block design to determine the effect of feed additives on production efficiency. […] Treatments 2 and 4 will be the focus of this example. Diets were corn silage based and formulated to be iso-nitrogenous. Cows were housed in a free-stall barn with access to individual stalls. Training for Calan door use was initiated in mid-May, the standardization period occurred in early June and the treatment period started in late June and continued through early August. Feed was mixed and delivered once daily and fed behind electronic Calan doors, allowing individual intake to be determined. Ad libitum intakes were adjusted to achieve orts of 7-10% daily. Cows were milked twice daily at 0400 and 1500. Feed intake, milk yield and composition, body temperature, and body weight changes were monitored."}, "[6]": {"experiment": "Crude glycerin in finishing cattle diets: carcass merit", "type": "in vivo, Angus-cross steers", "conditions": "for Adjusted Carcass Live Wt / Backfat Depth / Choice 0 / Choice - / Dress / Hot Carcass Weight / KPH Fat / Live Weight / Marbling Score / Ribeye Area / YG 2 / YG 3 / YG 4 / Yield Grade / Carcass Value: 10% DM glycerin; for Carcass Value: calculated from carcass weight, premiums and discounts", "experimental": "All cattle were adapted on a common 4-step transition prior to initiation of the evaluation. Cattle were blocked by weight (4 blocks) with four pens per treatment (9-10 head/pen). […] Individual weights were collected at 28-day intervals throughout with steers terminated on three harvest dates (days on feed 116 to 153 days) based on weight and condition. Six monthly periods and cumulative (d 1-116 and 1-153) periods were analyzed. […] Carcass value was calculated using actual carcass weight and associated premiums and discounts for quality and yield grades."}, "[7]": {"conditions": "DDGS:Soy Hulls 10:0 diet (Treatment 2)"}, "[8]": {"conditions": "DDGS:Soy Hulls 30:15 diet (Treatment 4)"}},
  "note": "Read-outs that look alike come from different tables or passages of the source. Marks after values point to notes of the source that are not given here.",
  "data": [
    {"smiles": "OCC(O)CO", "note": "[crude glycerin, glycerin]", "values": [
      {"measurement": "daily gain", "setting": "[1]; phase 4, increasing dietary crude glycerin", "result": "decreased in phase 4 in a linear and quadratic manner"},
      {"measurement": "Feed intake", "setting": "[1]; phases 2, 3, 4 and cumulative phases 1-2, 1-3, 1-4, increasing dietary crude glycerin", "result": "linearly increased"},
      {"measurement": "daily gain", "setting": "[1]; up to 12% crude glycerin", "result": "did not affect daily gain"},
      {"measurement": "animals with measurable methanol in rumen fluid", "setting": "[2]", "result": 50, "unit": "%"},
      {"measurement": "animals with measurable methanol in rumen fluid", "setting": "[2]; 16 day", "result": 100, "unit": "%"},
      {"measurement": "methanol in rumen fluid", "setting": "[2]; 16 day", "result": "≤ 23.77", "unit": "ppm"},
      {"measurement": "Gross energy", "setting": "[3]", "result": 3845, "unit": "kcal/kg"},
      {"measurement": "Final weight", "setting": "[4]; 0 to 20% crude glycerin", "result": "not significantly different"},
      {"measurement": "morbidity and mortality, treatment effects", "setting": "[4]; 0 to 20% crude glycerin", "result": "treatment effects were not different"},
      {"measurement": "cumulative DMI", "setting": "[4]; 5% crude glycerin", "result": 1.26, "unit": "kg/day"},
      {"measurement": "cumulative DMI", "setting": "[4]; 10% crude glycerin", "result": 1.21, "unit": "kg/day"},
      {"measurement": "cumulative DMI", "setting": "[4]; 15% crude glycerin", "result": 1.27, "unit": "kg/day"},
      {"measurement": "cumulative DMI", "setting": "[4]; 20% crude glycerin", "result": 1.20, "unit": "kg/day"},
      {"measurement": "Cumulative ADG", "setting": "[4]; days 1 to 29, 5% crude glycerin", "result": 0.40, "unit": "kg/day"},
      {"measurement": "Cumulative ADG", "setting": "[4]; days 1 to 29, 10% crude glycerin", "result": 0.36, "unit": "kg/day"},
      {"measurement": "Cumulative ADG", "setting": "[4]; days 1 to 29, 15% crude glycerin", "result": 0.39, "unit": "kg/day"},
      {"measurement": "Cumulative ADG", "setting": "[4]; days 1 to 29, 20% crude glycerin", "result": 0.36, "unit": "kg/day"},
      {"measurement": "palatability", "setting": "[4]; levels of up to 20% dry matter (DM) inclusion", "result": "not a concern"},
      {"measurement": "NE Balance", "setting": "[5]", "result": 6.15, "unit": "mcal/day"},
      {"measurement": "NE intake", "setting": "[5]", "result": 38.74, "unit": "mcal/day"},
      {"measurement": "NE milk", "setting": "[5]", "result": 27.07, "unit": "mcal/day"},
      {"measurement": "Body Weight change", "setting": "[5]; 56 days", "result": "greater"},
      {"measurement": "Milk fat", "setting": "[5]; 56 days", "result": 3.90, "unit": "%"},
      {"measurement": "Milk fat, milk protein, and energy corrected milk yield", "setting": "[5]; 56 days", "result": "tended greater"},
      {"measurement": "Milk production", "setting": "[5]; 56 days", "result": "not affected by treatment group"},
      {"measurement": "Milk protein", "setting": "[5]; 56 days", "result": 2.93, "unit": "%"},
      {"measurement": "Retained net energy for lactation and/or body weight gain", "setting": "[5]; 56 days", "result": "significantly greater"},
      {"measurement": "Milk", "setting": "[5]; 56 days, all cows", "result": 38.53, "unit": "kg/day"},
      {"measurement": "DMI", "setting": "[5]; 56 days, listed as Glycerin", "result": 23.49, "unit": "kg/day"},
      {"measurement": "DMI", "setting": "[5]; 56 days, listed as glycerin", "result": "not different among treatment groups"},
      {"measurement": "Milk, Multiparous", "setting": "[5]; multiparous cows", "result": 36.63, "unit": "kg/day"},
      {"measurement": "Milk, Primiparous", "setting": "[5]; primiparous cows", "result": 40.42, "unit": "kg/day"},
      {"measurement": "ECM (energy corrected milk)", "setting": "[5]; (.3246 × kg milk) + (12.86 × kg fat) + (7.04 × kg protein)", "result": 39.40, "unit": "kg/day"},
      {"measurement": "BW change", "setting": "[5]; difference in body weights using a weekly rolling average", "result": 0.779, "unit": "kg/day"},
      {"measurement": "Adjusted Carcass Live Wt", "setting": "[6]; [7]", "result": "567.9^a kg"},
      {"measurement": "Backfat Depth", "setting": "[6]; [7]", "result": 1.40, "unit": "cm"},
      {"measurement": "Choice 0", "setting": "[6]; [7]", "result": 66.7, "unit": "%"},
      {"measurement": "Choice -", "setting": "[6]; [7]", "result": 94.4, "unit": "%"},
      {"measurement": "Dress", "setting": "[6]; [7]", "result": 61.59, "unit": "%"},
      {"measurement": "Hot Carcass Weight", "setting": "[6]; [7]", "result": "357.7^a kg"},
      {"measurement": "KPH Fat", "setting": "[6]; [7]", "result": 1.90, "unit": "%"},
      {"measurement": "Live Weight", "setting": "[6]; [7]", "result": "581.0^a kg"},
      {"measurement": "Marbling Score", "setting": "[6]; [7]", "result": 623.1},
      {"measurement": "Ribeye Area", "setting": "[6]; [7]", "result": 85.49, "unit": "sq cm"},
      {"measurement": "YG 2", "setting": "[6]; [7]", "result": 44.4, "unit": "%"},
      {"measurement": "YG 3", "setting": "[6]; [7]", "result": 55.6, "unit": "%"},
      {"measurement": "YG 4", "setting": "[6]; [7]", "result": 0.0, "unit": "%"},
      {"measurement": "Yield Grade", "setting": "[6]; [7]", "result": 3.01},
      {"measurement": "Carcass Value", "setting": "[6]; [7]", "result": "1038.6^a"},
      {"measurement": "Adjusted Carcass Live Wt", "setting": "[6]; [8]", "result": "551.4^ab kg"},
      {"measurement": "Backfat Depth", "setting": "[6]; [8]", "result": 1.48, "unit": "cm"},
      {"measurement": "Choice 0", "setting": "[6]; [8]", "result": 65.0, "unit": "%"},
      {"measurement": "Choice -", "setting": "[6]; [8]", "result": 95.0, "unit": "%"},
      {"measurement": "Dress", "setting": "[6]; [8]", "result": 61.65, "unit": "%"},
      {"measurement": "Hot Carcass Weight", "setting": "[6]; [8]", "result": "347.4^ab kg"},
      {"measurement": "KPH Fat", "setting": "[6]; [8]", "result": 1.87, "unit": "%"},
      {"measurement": "Live Weight", "setting": "[6]; [8]", "result": "563.3^ab kg"},
      {"measurement": "Marbling Score", "setting": "[6]; [8]", "result": 630.1},
      {"measurement": "Ribeye Area", "setting": "[6]; [8]", "result": 84.86, "unit": "sq cm"},
      {"measurement": "YG 2", "setting": "[6]; [8]", "result": 45.0, "unit": "%"},
      {"measurement": "YG 3", "setting": "[6]; [8]", "result": 55.0, "unit": "%"},
      {"measurement": "YG 4", "setting": "[6]; [8]", "result": 0.0, "unit": "%"},
      {"measurement": "Yield Grade", "setting": "[6]; [8]", "result": 3.07},
      {"measurement": "Carcass Value", "setting": "[6]; [8]", "result": "1008.5^ab"},
      {"measurement": "Adjusted Carcass Live Wt", "setting": "[6]; main effect over both diets", "result": 559.6, "unit": "kg"},
      {"measurement": "Backfat Depth", "setting": "[6]; main effect over both diets", "result": 1.44, "unit": "cm"},
      {"measurement": "Choice 0", "setting": "[6]; main effect over both diets", "result": 65.8, "unit": "%"},
      {"measurement": "Choice -", "setting": "[6]; main effect over both diets", "result": 94.7, "unit": "%"},
      {"measurement": "Dress", "setting": "[6]; main effect over both diets", "result": 61.62, "unit": "%"},
      {"measurement": "Hot Carcass Weight", "setting": "[6]; main effect over both diets", "result": 352.6, "unit": "kg"},
      {"measurement": "KPH Fat", "setting": "[6]; main effect over both diets", "result": 1.88, "unit": "%"},
      {"measurement": "Live Weight", "setting": "[6]; main effect over both diets", "result": 572.2, "unit": "kg"},
      {"measurement": "Marbling Score", "setting": "[6]; main effect over both diets", "result": 626.6},
      {"measurement": "Ribeye Area", "setting": "[6]; main effect over both diets", "result": 85.18, "unit": "sq cm"},
      {"measurement": "YG 2", "setting": "[6]; main effect over both diets", "result": 44.7, "unit": "%"},
      {"measurement": "YG 3", "setting": "[6]; main effect over both diets", "result": 55.3, "unit": "%"},
      {"measurement": "YG 4", "setting": "[6]; main effect over both diets", "result": 0.0, "unit": "%"},
      {"measurement": "Yield Grade", "setting": "[6]; main effect over both diets", "result": 3.04},
      {"measurement": "Carcass Value", "setting": "[6]; main effect over both diets", "result": 1023.5},
      {"measurement": "final and hot carcass weight, ribeye area, carcass value versus control", "setting": "[6]; steers fed 10% crude glycerin", "result": "tended (P<0.10) to have greater final and hot carcass weight, ribeye area, and resulting carcass value"}
    ]}
  ]
}
